{"source": "ChEMBL document CHEMBL5500406", "about": "“Discovery of Novel Proteolysis-Targeting Chimera Molecules as Degraders of Programmed Cell Death-Ligand 1 for Breast Cancer Therapy” (J Med Chem, 2024)", "key": {"[1]": {"target": "T1, Protein cereblon/Programmed cell death 1 ligand 1 (Mus musculus) (UniProt Q9EP73+Q8C7D2)", "T1 sequence (Q8C7D2 whole entry partner)": "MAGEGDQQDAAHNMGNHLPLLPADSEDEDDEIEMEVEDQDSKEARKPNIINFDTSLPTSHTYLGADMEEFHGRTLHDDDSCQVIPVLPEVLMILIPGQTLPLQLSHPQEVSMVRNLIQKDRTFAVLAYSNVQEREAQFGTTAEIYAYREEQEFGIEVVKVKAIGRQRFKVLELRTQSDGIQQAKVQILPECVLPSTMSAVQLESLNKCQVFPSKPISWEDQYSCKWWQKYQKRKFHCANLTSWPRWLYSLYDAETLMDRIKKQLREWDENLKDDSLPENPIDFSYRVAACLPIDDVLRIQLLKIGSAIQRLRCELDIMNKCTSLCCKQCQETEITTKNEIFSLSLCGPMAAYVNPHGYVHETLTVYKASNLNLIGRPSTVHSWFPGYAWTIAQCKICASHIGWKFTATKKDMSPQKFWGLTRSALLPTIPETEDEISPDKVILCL", "T1 sequence (Q9EP73 19-290 limits assumed)": "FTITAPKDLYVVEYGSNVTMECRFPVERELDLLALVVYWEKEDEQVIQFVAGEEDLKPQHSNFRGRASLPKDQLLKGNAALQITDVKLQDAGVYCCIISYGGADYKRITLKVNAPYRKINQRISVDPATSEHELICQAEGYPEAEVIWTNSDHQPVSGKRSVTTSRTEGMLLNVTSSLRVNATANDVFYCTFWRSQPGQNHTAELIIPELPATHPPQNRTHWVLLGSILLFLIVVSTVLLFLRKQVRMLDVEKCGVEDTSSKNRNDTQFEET", "experiment": "PROTAC activity at CRBN/PD-L1 in mouse 4T1 cells at 0.156 to 5 uM incubated for 24 hrs by Western blot analysis", "format": "cell-based", "details": "dose 0.156-5 µM"}, "4T1 [2]": {"tested_on": "4T1", "experiment": "Antitumor activity against mouse 4T1 cells assessed as decrease in cell viability incubated for 24 hrs by LDH assay", "format": "functional, cell-based"}, "[3]": {"experiment": "Cytotoxicity against BALB/c mouse PBMC cells at <=0.312 uM incubated for 48 hrs by MTT assay", "format": "toxicity, cell-based"}, "[4]": {"target": "T1, Protein cereblon/Programmed cell death 1 ligand 1 (Mus musculus)", "experiment": "PROTAC activity at CRBN/PD-L1 in mouse 4T1 cells assessed as protein degradation at 1.25 to 20 uM incubated for 24 hrs by Western blot analysis", "format": "cell-based", "details": "dose 1.25-20 µM"}, "4T1 [5]": {"tested_on": "4T1", "experiment": "Antitumor activity against mouse 4T1 cells allografted in BALB/c mouse assessed as reduction in tumor volume at 10 mg/kg, ip qd for 15 days", "format": "functional, organism-based", "details": "time 15.0 day"}, "4T1 [6]": {"tested_on": "4T1", "experiment": "Antitumor activity against mouse 4T1 cells allografted in BALB/c mouse assessed as reduction in tumor weight at 10 mg/kg, ip qd for 15 days", "format": "functional, organism-based", "details": "time 15.0 day"}}, "note": "Active and inactive are the calls of the source. No cut-off for these calls is given here.", "data": [{"smiles": "COc1nc(OCc2cccc(-c3ccccc3)c2C)ccc1CNCCNC(C)=O.Cl", "values": [{"measurement": "Activity", "setting": "[1]", "result": "inactive"}, {"measurement": "Activity", "setting": "4T1 [2]", "result": "Active"}, {"measurement": "Activity", "setting": "[3]", "result": "Non-Toxic"}]}, {"smiles": "COc1nc(OCc2cccc(-c3ccccc3)c2C)ccc1CNCCNC(=O)CCCCCCCNC(=O)COc1ccc(C2CCC(=O)NC2=O)cc1", "note": "(stereo unspecified)", "values": [{"measurement": "Activity", "setting": "[4]", "result": "Active"}]}, {"smiles": "CC(=O)O[C@H]1C(=O)[C@@]2(C)[C@H]([C@H](OC(=O)c3ccccc3)[C@]3(O)C[C@H](OC(=O)[C@H](O)[C@@H](NC(=O)c4ccccc4)c4ccccc4)C(C)=C1C3(C)C)[C@]1(OC(C)=O)CO[C@@H]1C[C@@H]2O", "values": [{"measurement": "Activity", "setting": "4T1 [5]", "result": "Active"}, {"measurement": "Activity", "setting": "4T1 [6]", "result": "Active"}]}]}
